Measured values: ChEMBL document CHEMBL1156904, “Part II: piperazinyl-glutamate-pyridines as potent orally bioavailable P2Y12 antagonists for inhibition of platelet aggregation” (Bioorg Med Chem Lett, 2010)

Tests used:
[1] = Antiplatelet activity in human platelet rich plasma assessed as inhibition of ADP-induced platelet aggregation; format: functional
P2Y purinoceptor 12 = P2Y purinoceptor 12 (Homo sapiens, UniProt Q9H244); assay: Inhibition of human P2Y12 receptor expressed in CHO cells
[2] = Metabolic stability in rat microsomes; format: ADME, Microsome
[3] = Metabolic stability in human microsomes; format: ADME, Microsome
[4] = Antiplatelet activity in human platelet rich plasma assessed as inhibition of ADP-induced platelet aggregation relative to AZD-6140; format: functional

P2Y purinoceptor 12, sequence (Q9H244 whole entry): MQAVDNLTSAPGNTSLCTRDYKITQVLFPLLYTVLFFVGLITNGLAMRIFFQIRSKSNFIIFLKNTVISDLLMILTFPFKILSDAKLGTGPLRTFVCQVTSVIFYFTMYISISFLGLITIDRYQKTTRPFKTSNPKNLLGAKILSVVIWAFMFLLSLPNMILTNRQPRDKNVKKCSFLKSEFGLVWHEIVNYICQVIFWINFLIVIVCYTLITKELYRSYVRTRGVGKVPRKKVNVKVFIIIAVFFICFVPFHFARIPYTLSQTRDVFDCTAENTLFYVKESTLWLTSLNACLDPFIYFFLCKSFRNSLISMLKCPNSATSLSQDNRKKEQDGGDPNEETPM

SMILES	IC50 [1]	Ki (P2Y purinoceptor 12)	Stability [2]	Stability [3]	fold change (FC) [4]
CCCCCOC(=O)N1CCN(C(=O)[C@H](CCC(=O)O)NC(=O)c2cc(N3CCC(CN4CCCC4)CC3)cc(-c3ccccc3)n2)CC1	740 nM	1.1 nM	Stable	Stable	0.93
CCCCOC(=O)N1CCN(C(=O)[C@H](CCC(=O)O)NC(=O)c2cc(N3CCC(C(=O)N(C)C)CC3)cc(-c3ccccc3)n2)CC1	630 nM	2.6 nM	Stable	Stable	0.53
CCCCOC(=O)N1CCN(C(=O)[C@H](CCC(=O)O)NC(=O)c2cc(N3CCC(CNC)CC3)cc(-c3ccccc3)n2)CC1	910 nM	4 nM	Stable	Stable	1
CCCCCOC(=O)N1CCN(C(=O)[C@H](CCC(=O)O)NC(=O)c2cc(N3CCC(C(=O)NC(C)C)CC3)cc(-c3ccccc3)n2)CC1	750 nM	6 nM	Stable	Stable	0.64
CCCCOC(=O)N1CCN(C(=O)[C@H](CCC(=O)O)NC(=O)c2cc(N3CCC(C(=O)NCC)CC3)cc(-c3ccccc3)n2)CC1	1200 nM	0.68 nM	Stable	Stable	0.9
CCCCCOC(=O)N1CCN(C(=O)[C@H](CCC(=O)O)NC(=O)c2cc(N3CCCC(C(N)=O)C3)cc(-c3ccccc3)n2)CC1 (stereo not given in full)	7800 nM	17 nM	Stable	Stable	7.3
CCCCCOC(=O)N1CCN(C(=O)[C@H](CCC(=O)O)NC(=O)c2cc(N3CC(CNC)C3)cc(-c3ccccc3)n2)CC1	1300 nM	7.1 nM	Stable	Stable	1.9
CCCCCOC(=O)N1CCN(C(=O)[C@H](CCC(=O)O)NC(=O)c2cc(N3CC(C(=O)NCC)C3)cc(-c3ccccc3)n2)CC1	1800 nM	2 nM	Stable	Stable	1.5
CCCCCOC(=O)N1CCN(C(=O)[C@H](CCC(=O)O)NC(=O)c2cc(N3CCC(C(=O)NC)CC3)cc(-c3ccccc3)n2)CC1	1600 nM	7.9 nM	Stable	Stable	0.86
CCCCOC(=O)N1CCN(C(=O)[C@H](CCC(=O)O)NC(=O)c2cc(N3CCC(CN4CCCC4=O)CC3)cc(-c3ccccc3)n2)CC1	1100 nM	0.79 nM	Stable	Stable	1.5
CCCCOC(=O)N1CCN(C(=O)[C@H](CCC(=O)O)NC(=O)c2cc(N3CCC(C(=O)NC(C)C)CC3)cc(-c3ccccc3)n2)CC1	620 nM	4.3 nM	Stable	Stable	0.82
CCCCCOC(=O)N1CCN(C(=O)[C@H](CCC(=O)O)NC(=O)c2cc(N3CCCC(N4CCCC4)C3)cc(-c3ccccc3)n2)CC1 (stereo not given in full)	3300 nM	11 nM	Stable	Stable	3.3
CCCCCOC(=O)N1CCN(C(=O)[C@H](CCC(=O)O)NC(=O)c2cc(N3CCCC(OC)C3)cc(-c3ccccc3)n2)CC1 (stereo not given in full)	5200 nM	31 nM	Stable	Stable	6.3
CCCCOC(=O)N1CCN(C(=O)[C@H](CCC(=O)O)NC(=O)c2cc(N3CCC(CN(C)C)CC3)cc(-c3ccccc3)n2)CC1	890 nM	3.2 nM	Stable	Stable	1.3
CCCCCOC(=O)N1CCN(C(=O)[C@H](CCC(=O)O)NC(=O)c2cc(N3CCCC(CN4CCCC4=O)C3)cc(-c3ccccc3)n2)CC1 (stereo not given in full)	2600 nM	10 nM	Stable	Stable	3.8
CCCCCOC(=O)N1CCN(C(=O)[C@H](CCC(=O)O)NC(=O)c2cc(N3CC[C@@H](C(=O)N(CC)CC)C3)cc(-c3ccccc3)n2)CC1	6600 nM	2.6 nM	Stable	Stable	5

The next lines start with results.

IC50 [1]	Ki (P2Y purinoceptor 12)	Stability [2]	Stability [3]	SMILES	fold change (FC) [4]
1900 nM	6.5 nM	Stable	Stable	CCCCCOC(=O)N1CCN(C(=O)[C@H](CCC(=O)O)NC(=O)c2cc(N3CCNCC3)cc(-c3ccccc3)n2)CC1	2.3
4400 nM	16 nM	Stable	Stable	CCCCCOC(=O)N1CCN(C(=O)[C@H](CCC(=O)O)NC(=O)c2cc(N3CCC[C@@H](O)C3)cc(-c3ccccc3)n2)CC1	4.9
3000 nM	5.9 nM	Stable	Stable	CCCCCOC(=O)N1CCN(C(=O)[C@H](CCC(=O)O)NC(=O)c2cc(N3CCN(C(=O)N(C)C)CC3)cc(-c3ccccc3)n2)CC1	3.6
690 nM	4.9 nM	Stable	Stable	CCCCCOC(=O)N1CCN(C(=O)[C@H](CCC(=O)O)NC(=O)c2cc(N3CCN(CC(=O)N(C)C)CC3)cc(-c3ccccc3)n2)CC1	1.1
5000 nM	16 nM	Stable	Stable	CCCCCOC(=O)N1CCN(C(=O)[C@H](CCC(=O)O)NC(=O)c2cc(N3CCN(C(=O)C(C)C)CC3)cc(-c3ccccc3)n2)CC1	6.6
520 nM	8.4 nM	Stable	Stable	CCCCCOC(=O)N1CCN(C(=O)[C@H](CCC(=O)O)NC(=O)c2cc(N3CCN(CCCN(C)C)CC3)cc(-c3ccccc3)n2)CC1	0.72
1500 nM	6.3 nM	Stable	Stable	CCCCCOC(=O)N1CCN(C(=O)[C@H](CCC(=O)O)NC(=O)c2cc(N3CCN(CCOCCC)CC3)cc(-c3ccccc3)n2)CC1	3.1
29000 nM	21 nM	Stable	Stable	CCCCCOC(=O)N1CCN(C(=O)C(CCC(=O)O)NC(=O)c2cc(N3CCC(CO)C3)cc(-c3ccccc3)n2)CC1 (mixture of isomers)	11
7100 nM	13 nM	Stable	Stable	CCCCCOC(=O)N1CCN(C(=O)C(CCC(=O)O)NC(=O)c2cc(N3CCC(O)C3)cc(-c3ccccc3)n2)CC1 (mixture of isomers)	3.9
2400 nM	18 nM	Stable	Stable	CCCCCOC(=O)N1CCN(C(=O)[C@H](CCC(=O)O)NC(=O)c2cc(N3CCC[C@H](O)C3)cc(-c3ccccc3)n2)CC1	3.7
1100 nM	4.5 nM	Stable	Stable	CCCCCOC(=O)N1CCN(C(=O)[C@H](CCC(=O)O)NC(=O)c2cc(N3CCN(CCN)CC3)cc(-c3ccccc3)n2)CC1	1.6
